Like-named read-outs stand apart in the source and are kept apart here.
What was measured:
[1] = literature statement (A. L. Morrison et al., J.Chem. Soc., 1467, 1950); cited from earlier work
[2] = system: Male CF1 mice; experiment: Mouse antiphenylquinone writhing (PQW) test; assay type: in vivo; design: Mouse PQW ED50 (mg/kg): unit not given here; conditions: for Mouse PQW ED50 (mg/kg): Table 4, 3° carbinols within the scope of U.S. 4,485,109, head prints neither endpoint nor unit; for ED50: Mus musculus, 0.5 h, phenylquinone 1.25 mg/kg i.p., observation beginning 30 min after injection of test compound; for ED50 / Mouse PQW remark: Table 3; for Mouse PQW remark: remark beside S.C and P.O values
Protocol: The anti-pheylquinone writhing (PQW) test modified from the methods of Siegmund et al. (Proc. Soc. Exp. Biol. Med. 95: 729-731, 1957) and Blumberg et al. (Proc. Exp. Biol. Med. 118: 763-767, 1965) was used to assess analgesia in mice. Male CF1 mice (Charles River Breeding Laboratories, Wilmington, MA), fasted for 16-22 h and weighing 18-23 g, were injected with randomized and coded doses of test compounds, then challenged with 1.25 mg/kg i.p. phenyl-p-benzoquinone (phenylquinone) 5 min prior to the specified observation time. The phenylquinone solution (0.1 mg/ml in 5% aqueous ethanol) was prepared daily and stored in foil-wrapped amber bottles to limit degradation. Mice were observed 10 min for the presence or absence of the characteristic abdominal constriction and stretching response beginning 30 min after injection of the test compound. Analgetic activity was calculated as the percentage of mice failing to respond to the phenylquinone challenge dose. […] Median effective doses (ED50's) and 95% confidence limits were determined numerically by the methods of Thompson (Bacteriological Rev. 11: 115-145, 1947), and Litchfield and Wilcoxon (J. Pharmacol. Exp. Ther. 96: 99.113, 1949).
The data shown in Table show the PQW ED₅₀ values for the compounds of the aforesaid examples.
Table 4 illustrates that the 3° carbinols within the scope of U.S. 4,485,109 have utility as analgesic agents.

[3] = system: Male CF mice; experiment: Antagonism of tetrabenazine-induced depression (exploratory loss and ptosis) in mice; assay type: in vivo; conditions: Mus musculus, po, 1 h, orally, one hour post-drug, tetrabenazine methane sulfonate 52 mg/kg i.p., read-out: Oral ED₅₀ (mg/kg) for Prevention of Ptosis
Description: The prevention of tetrabenazine-induced sedation and depression in mice is a standard procedure used to detect and compare antidepressant compounds. The activity of antidepressant compounds in this procedure correlates well with human efficacy. (Barnett, et al., Int. J. Neuropharmac. 8: 73-79, 1969, and Vernier, et al., "The Pharmacodynamics of Amitriptyline" in Psychsomatic Medicine (Nodine & Moyer, editors) pp. 683-690, 1962).
Male CF mice (Charles River Breeding Laboratories, Wilmingon, MA), fasted for 16-22 hours and weighing 18-25 g, were injected with randomized and coded does of test compounds, then challenged with 52 mg/kg i.p. tetrabenazine methane sulfonate 30 minutes prior to the specified observation time. The tetrabenazine methane sulfonate solution (5.2 mg/ml in distilled water) was prepared daily and stored in foil-wrapped amber bottles to limit degradation. […] Exploratory loss was defined as failing to move to the perimeter of a 12.7 cm (5 inch) (12.7 cm) circle within 15 seconds of being placed at the center of the circle. Ptosis was defined as both eyelids closed 50% or more compared to normal. Antidepressant activity was calculated as the percentage of mice failing to respond to the tetrabenazine challenge dose. […] Median effective does (ED₅₀'s) were estimated using the Moving Average method of Thompson (Bacteriological Rev. 11: 115-145, 1947).
The data in Table 5 show ED₅₀ values for the compounds of the aforesaid examples.

[4] = po, p.o., read-out: Mouse PQW ED₅₀ (Mg/Kg) P.O
[5] = sc, s.c., read-out: Mouse PQW ED₅₀ (Mg/Kg) S.C

Compound | Mouse PQW ED50 (mg/kg) ([2]; p.o.) | ED50 [2, 4] | ED50 [2, 5] | also measured
CCC(O)C1(c2ccccc2)CCN(C)CC1 (centres unmarked) [4-phenyl-1-methyl-4-(1-hydroxypropyl)piperidine, reference compound] | – | – | – | analgesic activity compared with the parent ketones [1]: much less active as analgesics than the parent ketones
CN1CCC(c2cccc(O)c2)(C(C)(C)O)CC1 [AA] | >81.0 | – | – | Mouse PQW ED50 (mg/kg) ([2]; s.c.): 62.0
COc1cccc(C2(C(C)(C)O)CCN(C)CC2)c1 [BB] | 19.0 | – | – | Mouse PQW ED50 (mg/kg) ([2]; s.c.): 12.0
CCC(C)(O)C1(c2cccc(OC)c2)CCN(C)CC1 (centres unmarked) [CC] | 68.0 | – | – | Mouse PQW ED50 (mg/kg) ([2]; s.c.): 23.0
CCC(O)(CC)C1(c2cccc(OC)c2)CCN(C)CC1 [DD] | 12.0 | – | – | –
COc1cccc(C2(C3(O)CCC3)CCN(C)CC2)c1 [EE] | >54.0 | – | – | Mouse PQW ED50 (mg/kg) ([2]; s.c.): 22.0
CN1CCC(c2cccc(Cl)c2)(C(C)(C)O)CC1 [Example 1a, 4-(3'-Chlorophenyl)-α,α,1-trimethyl-4-piperidinemethanol] | – | 10 mg/kg | 16.1 mg/kg | –
CCN1CCC(c2cccc(Cl)c2)(C(C)O)CC1 (stereo not drawn) [Example 2, 4-(3'-Chlorophenyl)-1-ethyl-α-methyl-4-piperidinemethanol] | – | > 81 mg/kg | 62 mg/kg | –
CC(O)C1(c2ccccc2F)CCN(C)CC1 (centres unmarked) [Example 4] | – | > 81 mg/kg | > 81 mg/kg | Mouse PQW remark [2]: Inactive
CC(O)C1(c2cccc(F)c2)CCN(C)CC1 (centres unmarked) [Example 5] | – | > 81 mg/kg | 24 mg/kg | –
CC(O)C1(c2ccc(F)cc2)CCN(C)CC1 (centres unmarked) [Example 6] | – | > 81 mg/kg | 54 mg/kg | –
CC(O)C1(c2ccc(F)c(F)c2)CCN(C)CC1 (centres unmarked) [Example 7] | – | > 81 mg/kg | 38 mg/kg | –
CC(O)C1(c2ccc(Cl)cc2)CCN(C)CC1 (centres unmarked) [Example 8] | – | > 81 mg/kg | 30 mg/kg | –
CC(O)C1(c2ccc(Cl)c(Cl)c2)CCN(C)CC1 (centres unmarked) [Example 9] | – | 32 mg/kg | > 81 mg/kg | –
CC(O)C1(c2cccc(Br)c2)CCN(C)CC1 (stereo not drawn) [Example 10, 4-(3'-Bromophenyl)-α,1-dimethylpiperidinemethanol] | – | 16 mg/kg | 6.5 mg/kg | –
CC(O)C1(c2ccc(Br)cc2)CCN(C)CC1 (centres unmarked) [Example 11] | – | > 81 mg/kg | > 81 mg/kg | Mouse PQW remark [2]: Inactive
Cc1ccccc1C1(C(C)O)CCN(C)CC1 (centres unmarked) [Example 12] | – | > 81 mg/kg | > 81 mg/kg | Mouse PQW remark [2]: Inactive; ED50 [3]: 1.03 mg/kg
Cc1cccc(C2(C(C)O)CCN(C)CC2)c1 (centres unmarked) [Example 13] | – | 47 mg/kg | 4.7 mg/kg | –
Cc1ccc(C2(C(C)O)CCN(C)CC2)cc1 (centres unmarked) [Example 14] | – | > 81 mg/kg | 54 mg/kg | –
CC(O)C1(c2cccc(C(F)(F)F)c2)CCN(C)CC1 (centres unmarked) [Example 15] | – | 30 mg/kg | 19 mg/kg | –
COc1ccc(C2(C(C)O)CCN(C)CC2)cc1 (centres unmarked) [Example 17] | – | > 81 mg/kg | > 81 mg/kg | Mouse PQW remark [2]: Inactive; ED50 [3]: 1.3 mg/kg
CC(O)C1(c2ccc3ccccc3c2)CCN(C)CC1 (centres unmarked) [Example 25] | – | > 81 mg/kg | 16 mg/kg | –
CC(O)C1(c2cccs2)CCN(C)CC1 (stereo not drawn) [Example 26, 4-(2-Thienyl)-α,1-dimethylpiperidinemethanol] | – | 19 mg/kg | 13 mg/kg | –
CC(O)C1(c2ccsc2)CCN(C)CC1 (stereo not drawn) [Example 27, 4-(3-Thienyl)-α,1-dimethylpiperidinemethanol] | – | 16 mg/kg | 13 mg/kg | –
CC(O)C1(c2csc3ccccc23)CCN(C)CC1 (centres unmarked) [Example 29] | – | 47 mg/kg | 6.8 mg/kg | –
CCCN1CCC(c2cccc(Cl)c2)(C(C)O)CC1 (centres unmarked) [Example 34] | – | > 81 mg/kg | 38 mg/kg | –
CCC(O)C1(c2cccc(Cl)c2)CCN(C)CC1 (centres unmarked) [Example 35] | – | 30 mg/kg | 16 mg/kg | –

Compound | Mouse PQW ED50 (mg/kg) ([2]; p.o.) | ED50 [2, 4] | ED50 [2, 5] | also measured
CCCC(O)C1(c2cccc(Cl)c2)CCN(C)CC1 (centres unmarked) [Example 36] | – | > 81 mg/kg | 67 mg/kg | –
CCCCC(O)C1(c2cccc(Cl)c2)CCN(C)CC1 (centres unmarked) [Example 37] | – | > 81 mg/kg | 48 mg/kg | –
CN1CCC(c2cccc(Br)c2)(C(C)(C)O)CC1 [Example 41, 4-(3'-Bromophenyl)-α,α,1-trimethyl-4-piperidinemethanol] | – | 24 mg/kg | 19 mg/kg | –
C=CCN1CCC(c2cccc(Cl)c2)(C(C)(C)O)CC1 [Example 42, 1-allyl,4-(3'-chlorophenyl)-α,α dimethyl-4-piperidinemethanol] | – | 54 mg/kg | 27 mg/kg | –
CN1CCC(c2cccs2)(C(C)(C)O)CC1 [Example 43] | – | 36 mg/kg | 13 mg/kg | –
CN1CCC(c2ccsc2)(C(C)(C)O)CC1 [Example 44] | – | 24 mg/kg | 6.5 mg/kg | –
CN1CCC(c2csc3ccccc23)(C(C)(C)O)CC1 [Example 45] | – | 54 mg/kg | 4.2 mg/kg | –
CN1CCC(c2ccccn2)(C(C)(C)O)CC1 [Example 46, reference compound] | – | > 81 mg/kg | > 81 mg/kg | Mouse PQW remark [2]: Inactive
CN1CCC(c2cccc3ccccc23)(C(C)(C)O)CC1 [Example 50] | – | 67 mg/kg | 24 mg/kg | –
CC(=O)OC(C)C1(c2cccc(Cl)c2)CCN(C)CC1 (stereo not drawn) [Example 66, 4-(3'-Chlorophenyl)-α,1-dimethyl-4-piperidinemethanol-Acetate] | – | 19 mg/kg | 13 mg/kg | –
CC(=O)OC(C)(C)C1(c2cccc(Cl)c2)CCN(C)CC1 [Example 67, 4-(3'-Chlorophenyl)-α,α,1-trimethyl-4-piperidinemethanol Acetate] | – | 5.2 mg/kg | 1.8 mg/kg | –
COC(C)C1(c2cccc(Cl)c2)CCN(C)CC1 (centres unmarked) [Example 68] | – | 19 mg/kg | 6.5 mg/kg | –
CC(OCc1ccccc1)C1(c2cccc(Cl)c2)CCN(C)CC1 (centres unmarked) [Example 69] | – | > 81 mg/kg | 62 mg/kg | –
CN1CCC(c2cccc(Cl)c2)(C(C)(C)O)C1 (stereo not drawn) [Example 70, 3-(3'Chlorophenyl)-α,α,1-trimethyl-3-pyrrolidinemethanol] | – | 13 mg/kg | 10 mg/kg | –
CC(O)C1(c2cccc(Cl)c2)CCCN(C)CC1 (stereo not drawn) [Example 71, 4-(3'-Chlorophenyl)-α,1-dimethyl-2,3,4,5,6,7-hexahydro-1H-azepine-4-methanol] | – | 16 mg/kg | 8.1 mg/kg | –
COc1cccc(C2(C3(O)CCCC3)CCN(C)CC2)c1 [FF] | 47.0 | – | – | Mouse PQW ED50 (mg/kg) ([2]; s.c.): 16.0
COc1cccc(C2(C3(O)CCCCC3)CCN(C)CC2)c1 [GG] | <108.0 | – | – | –
CCOc1cccc(C2(C(C)(C)O)CCN(C)CC2)c1 [HH] | 32.0 | – | – | Mouse PQW ED50 (mg/kg) ([2]; s.c.): 9.0
CSc1ccc(C2(C(C)(C)O)CCN(C)CC2)cc1 [II] | 59.0 | – | – | –
CN1CCC(c2ccc3ccccc3c2)(C(C)(C)O)CC1 [KK] | 47.0 | – | – | Mouse PQW ED50 (mg/kg) ([2]; s.c.): 27.0
Cc1ccc(C2(C(C)(C)O)CCN(C)CC2)s1 [LL] | 36.0 | – | – | Mouse PQW ED50 (mg/kg) ([2]; s.c.): 9.0
Cc1cc(C)cc(C2(C(C)(C)O)CCN(C)CC2)c1 [U] | 47.0 | – | – | Mouse PQW ED50 (mg/kg) ([2]; s.c.): 4.5
CCC(C)(O)C1(c2cccc(C(F)(F)F)c2)CCN(C)CC1 (centres unmarked) [V] | 23.0 | – | – | –
CN1CCC(c2cccc(C(F)(F)F)c2)(C2(O)CCCC2)CC1 [W] | 12.0 | – | – | Mouse PQW ED50 (mg/kg) ([2]; s.c.): 16.0
CN1CCC(c2cccc(F)c2)(C(C)(C)O)CC1 [X] | >81.0 | – | – | Mouse PQW ED50 (mg/kg) ([2]; s.c.): 10.0
CC1CCC(O)(C2(c3cccc(C(F)(F)F)c3)CCN(C)CC2)C1 (centres unmarked) [Y] | 25.0 | – | – | –
